Source: US9572787B2, “Inhibition of renal fibrosis” (Rhode Island Hospital, priority 2011, dated 2017)
Where two headings read alike, the source gives them in different places.

Assays:
NRK-49F cells = assay: Delayed suramin treatment of TGF-β1-pretreated renal interstitial fibroblasts; type: cell-based, rat; details: TGF-β1 pretreatment 24 and 48 h, then suramin 100 μM for additional 24 and 48 h with TGF-β1
Method: At 48 h after pretreatment with TGF-β1, expression of α-SMA and fibronectin was induced, which is similar to the in-vivo situation.

obstructed kidney (UUO) = assay: UUO model, delayed administration of suramin at day 3 of obstruction; type: in vivo, mouse
Method: Animals and the UUO Model. The UUO model used was described above. The abdominal cavity was exposed via a midline incision and the left ureter was isolated and ligated. Sham-operated animal received the same surgical procedures but without ureter ligation. To establish the time course of renal fibrogenesis in this model, four groups of mice (n=5) were killed at days 1, 3, 7, and 14, respectively, after left ureter ligation. […] Control mice were injected with the equal volume of vehicle (0.9% saline). At the end of the experiments, mice were killed and the kidneys were removed. One part of the kidneys was fixed in 10% phosphate-buffered formalin for histological studies. Another part was snap-frozen in liquid nitrogen and stored at −80° C. for protein extractions.

[1] = in the body, cited from earlier work
[2] = 20 mg/kg at day 3, kidney at day 10

## Cc1ccc(C(=O)Nc2ccc(S(=O)(=O)O)c3cc(S(=O)(=O)O)cc(S(=O)(=O)O)c23)cc1NC(=O)c1cccc(NC(=O)Nc2cccc(C(=O)Nc3cc(C(=O)Nc4ccc(S(=O)(=O)O)c5cc(S(=O)(=O)O)cc(S(=O)(=O)O)c45)ccc3C)c2)c1 [Suramin]
NRK-49F cells
  TGF-β1-induced fibronectin expression: suppressed further increase
  TGF-β1-induced α-SMA expression: suppressed further increase
Obstructed kidney (UUO); [2]
  EGFR phosphorylation: significant reduction
  PDGFR phosphorylation: significant reduction
  Smad3 phosphorylation: largely blocked
  expression of total EGFR: not affected
  expression of total PDGFR: not affected
  phosphorylation of ERK1/2: not further increased
  phosphorylation of STAT3: not further increased
  total protein level of ERK1/2: did not alter
  total protein level of STAT3: did not alter
Obstructed kidney (UUO); 20 mg/kg at day 3, both 7- and 14-day treatment groups
  α-SMA expression: reduced
Obstructed kidney (UUO); 20 mg/kg i.p. single dose at day 3, kidney at day 10
  Masson trichrome-positive areas: reduced on day 10 to a level similar to that in the kidney at 3 days of obstruction
[1]
  half life: 21 days
[1]; listed as suramin
  half life: at least 21 days
